The text below walks through data of patent US20230083012A1, “DIHYDROPYRIMIDINE DERIVATIVES AND USES THEREOF IN THE TREATMENT OF HBV INFECTION OR OF HBV-INDUCED DISEASES” (priority 2019, published 2023).

The EC50 is the midpoint of the concentration-response curve. As a reminder, the CC50 is the concentration at which the toxic effect on the cells reaches its halfway point. Read a low CC50 as greater toxicity to the cells.

One series concerns HBV. Briefly: Anti-HBV activity in HepG2.2.15 cells (HBV DNA in culture medium by qPCR). The note with it: Hepatitis B virus, HepG2.2.15, 144 h, HepG2.2.15 cells, 6 days treatment, HBV DNA in culture medium quantified by real-time PCR; read-out: EC50. The series is classed as cell-based. Here is the method: Example 2: Anti-Viral Assay in HepG2.2.15 Cells
(§1) HepG2.2.15 (the HepG2.2.15 cell line can be produced by transfection of the HepG2 cell line as described in Sells, Chen, and Acs 1987 (Proc. Natl. Acad. Sci. USA 84: 1005-1009), and the HepG2 cell line is available from ATCC® under number HIB-8065™)
(§2) HepG2.2.15 cells were plated into 96-well plate in 2% FBS culture medium at the density of 40,000 cells/well and 5,000 cells/well for HBV inhibitory activity and cytotoxicity determination, respectively. After incubation at 37° C., 5% CO2 overnight, cells were treated with medium containing compounds for 6 days with medium and compounds refreshed after 3 days of treatment. Each compound was tested in a 1:3 serial dilutions at 8 different concentrations in triplicate. The highest concentration of the compounds was 10 uM or 1 uM for anti-HBV activity assay and 100 uM for cytotoxicity determination.
The change of HBV DNA level induced by the compounds was assessed by quantitative real-time polymerase chain reaction (qPCR). Briefly, the HBV DNA in the culture medium was extracted using QIAamp 96 DNA Blood Kit according to the manual and then quantified by real-time PCR assay using the primers and probe in the table 2 below.
(§3) 2) DATA Analysis EC50 and CC50 values are calculated by the GRAPTIPAD PRISM software.
Background: Quantitative PCR measures a nucleic acid by following its amplification.

The nature of series [1]: Cytotoxicity determination in HepG2.2.15 cells (CCK-8 cell viability). The series is classed as cell-based. The note with it: human, 6 days treatment, CCK-8 assay, highest concentration 100 uM. As to the method:
as §1, §2
Cell viability was determined by CCK-8 assay. After 6 days of compounds treatment, 20 μl CCK-8 reagents were added to each well of cytotoxicity assay plates. Cell plates were incubated at 37° C., 5% CO2 for 2.5 h. The absorbance at 450 nm wavelength and the absorbance at 630 nm wavelength as reference was measured.
as §3
A general note: Tetrazolium dyes change colour on reduction, which living cells bring about.

For the molecule `COC(=O)C1=C(CN2CC(F)(F)[C@@H]3C(=O)N(CC(C)(C)C(=O)O)C[C@@H]32)NC(c2nccs2)=N[C@H]1c1ccc(F)c(F)c1Cl` (single isomer, unassigned) [Compound 42, 3-((cis)-1-((6-(2-Chloro-3,4-difluorophenyl)-5-(methoxycarbonyl)-2-(thiazol-2-yl)-3,6-dihydropyrimidin-4-yl)methyl)-3,3-difluoro-4-oxohexahydropyrrolo[3,4-b]pyrrol-5(1H)-yl)-2,2-dimethylpropanoic acid], the EC50 in the series with HBV stood at 0.0138 µM. In addition, the CC50 at 6 days in series [1] is more than 100 µM.
For `CCOC(=O)C1=C(CN2CC(F)(F)[C@@H]3CN(CC(C)(C)C(=O)O)C(=O)[C@@H]32)NC(c2nccs2)=N[C@H]1c1cccc(F)c1C` (single isomer, unassigned) [Compound 13B] the same measures were 0.0035 µM and 38.6 µM.
As for `CCOC(=O)C1=C(CN2CC(F)(F)[C@@H]3CN(C4(C(=O)O)CC4)C(=O)C32)NC(c2nccs2)=N[C@H]1c1cccc(F)c1C` (single isomer, unassigned) [Compound 197], in the series on HBV, the EC50 is 0.0142 µM. Also, the CC50 at 6 days in series [1] was determined as 26 µM.
For `CCOC(=O)C1=C(CN2CC(F)(F)[C@H]3[C@@H]2CCN3CC[C@H]2C[C@@H](C(=O)O)C2)NC(c2nccs2)=N[C@H]1c1cccc(F)c1C` (single isomer, unassigned) [Compound 129A], in that order: 0.0077 µM and 10.3 µM.
For `CCOC(=O)C1=C(CN2CC(F)(F)C3CN(CC(C)(C)C(=O)O)CC32)NC(c2nccs2)=N[C@H]1c1cccc(F)c1C` (stereo in doubt) [Compound 12, (cis)-3-(1-(((S)-5-(ethoxycarbonyl)-6-(3-fluoro-2-methylphenyl)-2-(thiazol-2-yl)-3,6-dihydropyrimidin-4-yl)methyl)-3,3-difluorohexahydropyrrolo[3,4-b]pyrrol-5(1H)-yl)-2,2-dimethylpropanoic acid] the same measures were 0.0324 µM and 56.7 µM.
For `CCOC(=O)C1=C(CN2CC(F)(F)[C@H]3[C@@H]2CCN3C2CC3(CC(C(=O)O)C3)C2)NC(c2nccs2)=N[C@H]1c1cccc(F)c1C` (single isomer, unassigned) [Compound 113], in that order: 0.0022 µM and 12.5 µM.
For the molecule `CCOC(=O)C1=C(CN2CC(F)(F)C3C2CCN3NCC(C)(C)C(=O)O)NC(c2nccs2)=N[C@H]1c1cccc(F)c1C` (some centres unmarked) [Compound 27], in the series with HBV, the concentration giving a half-maximal response (EC50) was found to be 0.042 µM. Besides, in series [1], the CC50 at 6 days came out at 13.9 µM.
For `COC(=O)C1=C(CN2CC(F)(F)[C@@H]3C(=O)N(CC(C)(C)C(=O)O)C[C@@H]32)NC(c2nccs2)=N[C@H]1c1cccc(F)c1Cl` (single isomer, unassigned) [Compound 29, 3-((cis)-1-((6-(2-chloro-3-fluorophenyl)-5-(methoxycarbonyl)-2-(thiazol-2-yl)-3,6-dihydropyrimidin-4-yl)methyl)-3,3-difluoro-4-oxohexahydropyrrolo[3,4-b]pyrrol-5(1H)-yl)-2,2-dimethylpropanoic acid] the same measures were 0.0135 µM and more than 100 µM.
Turning to `COC(=O)C1=C(CN2CC(F)(F)[C@@H]3C(=O)N(CC(C)(C)C(=O)O)C[C@@H]32)NC(c2ncoc2C)=N[C@H]1c1ccc(F)cc1Cl` (single isomer, unassigned) [Compound 41, 3-((cis)-1-((6-(2-chloro-4-fluorophenyl)-5-(methoxycarbonyl)-2-(5-methyloxazol-4-yl)-3,6-dihydropyrimidin-4-yl)methyl)-3,3-difluoro-4-oxohexahydropyrrolo[3,4-b]pyrrol-5(1H)-yl)-2,2-dimethylpropanoic acid], in the series on HBV, the half-maximal effective concentration (EC50) worked out at 0.0938 µM. In series [1], the CC50 at 6 days is more than 100 µM.
For `CCOC(=O)C1=C(CN2CC(F)(F)[C@@H]3CN(CC4(C(=O)O)CC4)C[C@@H]32)NC(c2nccs2)=N[C@H]1c1cccc(F)c1C` (single isomer, unassigned) [Compound 16B], in that order: 0.0686 µM and more than 100 µM.
